Test systems include OVCAR-4; SR; CAKI-1; SK-MEL-28; HL-60; DU-145; MOLT-4; SN12C; NCI/ADR-RES; OVCAR-5; RXF 393; OVCAR-8; RPMI-8226; HOP-62; SK-MEL-2; EKVX; LOX IMVI; MDA-N; KM12; NCI-H226.
Holding throughout (assay): NCI-60 cell line screen, 48 h

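Interpolation was linear, between the two tested concentrations surrounding the appropriate level; five concentrations were tested over 48 hours in 96-well plates. The concentration for 50% growth inhibition is given as GI50.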 Activity calls are given as the source filed them. Cut-off read from the data, not from the text of the source: active = GI50 up to about 1.1 µM and inactive = higher.

Consider `O=P(O)(O)CN1CCNCCN(CP(=O)(O)O)CCNCC1`, for which the GI50 is > 71.3 µM (inactive) in the assay with OVCAR-4; 1.79 µM (inactive) in the assay with SR; > 47.8 µM (inactive) in the assay on CAKI-1; > 100 µM (inactive) with SK-MEL-28; 2.79 µM (inactive) in the assay with HL-60; > 100 µM (inactive) with DU-145. The GI50 is 4.66 µM (inactive) in the assay with MOLT-4; > 100 µM (inactive) in the assay with SN12C; 35.2 µM (inactive) with NCI/ADR-RES; 10 µM (inactive) in the assay on OVCAR-5; > 100 µM (inactive) in the assay on RXF 393; 6.68 µM (inactive) in the assay with OVCAR-8. Besides, the GI50 in the assay with RPMI-8226 is 5.97 µM (inactive); with HOP-62, > 100 µM (inactive); in the assay on SK-MEL-2 it was > 100 µM (inactive); in the assay with EKVX, > 95.9 µM (inactive); in the assay with LOX IMVI, 15.7 µM (inactive); in the assay on MDA-N, 13.5 µM (inactive). Also, in the assay on KM12, the GI50 was 6.84 µM (inactive).
With `S=C(N/N=C\c1ccccn1)N(Cc1ccccn1)Cc1ccccn1`, the GI50 is 0.91 µM (active) in the assay on OVCAR-4; < 0.0419 µM (active) with NCI-H226; 1.42 µM (inactive) with SR; 0.229 µM (active) in the assay with CAKI-1; 1.22 µM (inactive) in the assay with SK-MEL-28; 2.29 µM (inactive) in the assay on DU-145. In addition, the GI50 in the assay on MOLT-4 is 0.0582 µM (active); in the assay on SN12C, 0.34 µM (active); in the assay on NCI/ADR-RES it was 1.19 µM (inactive); in the assay with OVCAR-5, 13 µM (inactive); in the assay with RXF 393, 10.4 µM (inactive); with OVCAR-8, 0.367 µM (active). Further, the GI50 was 1.17 µM (inactive) in the assay with RPMI-8226; 2.71 µM (inactive) in the assay with HOP-62; 11.6 µM (inactive) with SK-MEL-2; 0.721 µM (active) in the assay on EKVX; 0.646 µM (active) with LOX IMVI; 7.55 µM (inactive) in the assay on MDA-N. In the assay on KM12, the GI50 was 1.49 µM (inactive).
As to `O=C(/C=C1/Nc2ccc([N+](=O)[O-])cc2N/C1=C/C(=O)c1ccc(Cl)cc1)c1ccccc1`, the GI50 in the assay on OVCAR-4, in the assay with NCI-H226, with SR, in the assay with CAKI-1, in the assay on DU-145 and with MOLT-4 was > 100 µM (inactive) in each case. The GI50 was > 100 µM (inactive) with SN12C; 60.3 µM (inactive) with NCI/ADR-RES; > 100 µM (inactive) in the assay on OVCAR-5; 23.8 µM (inactive) in the assay on RXF 393; 72.4 µM (inactive) in the assay on OVCAR-8; 20.8 µM (inactive) in the assay on HOP-62. The GI50 was 19.9 µM (inactive) with SK-MEL-2, > 100 µM (inactive) with EKVX, > 100 µM (inactive) in the assay on MDA-N and > 100 µM (inactive) with KM12.
Regarding `C=CCOC(=O)N1c2ccc(O)cc2[C@@]23O[C@@]24[C@@H]1C#C/C=C\C#C[C@]3(O)C(=O)C[C@@H]4C`, the GI50 was 0.0231 µM (active) in the assay on OVCAR-4; 34.4 µM (inactive) with NCI-H226; 15 µM (inactive) in the assay on SR; > 100 µM (inactive) in the assay on CAKI-1; > 100 µM (inactive) with SK-MEL-28; 37.8 µM (inactive) in the assay with HL-60. The GI50 in the assay on DU-145 is > 100 µM (inactive); with MOLT-4, 14.8 µM (inactive); with SN12C, 54.2 µM (inactive); in the assay with NCI/ADR-RES it was 65.5 µM (inactive); in the assay on OVCAR-5 it was 28.2 µM (inactive); with RXF 393, > 100 µM (inactive). For the same compound, the GI50 is 47.1 µM (inactive) in the assay with OVCAR-8; 25.6 µM (inactive) in the assay with RPMI-8226; > 100 µM (inactive) in the assay with HOP-62; 77.8 µM (inactive) in the assay on SK-MEL-2; 78 µM (inactive) in the assay on EKVX; > 100 µM (inactive) in the assay on MDA-N. Also, the GI50 with KM12 is > 100 µM (inactive).
For `CCCCCCCCCCCCCCCC1(OC)C[N+](C)(C)CCO1` (stereo not drawn), the GI50 in the assay with OVCAR-4 was 1.02 µM (active); with NCI-H226 it was 1.08 µM (active); with SR, 2.25 µM (inactive); with CAKI-1, 1.4 µM (inactive); in the assay on SK-MEL-28, 2.37 µM (inactive); in the assay with HL-60, 0.0883 µM (active). Also, the GI50 with DU-145 is 2.35 µM (inactive); in the assay on MOLT-4, 1.12 µM (inactive); with SN12C, 1.66 µM (inactive); in the assay with NCI/ADR-RES it was 17.9 µM (inactive); in the assay on OVCAR-5, 2.23 µM (inactive); in the assay with RXF 393, 0.778 µM (active). Besides, the GI50 in the assay with OVCAR-8 was 1.83 µM (inactive); in the assay with HOP-62, 1.61 µM (inactive); in the assay on SK-MEL-2 it was 2.38 µM (inactive); in the assay on EKVX, 2.31 µM (inactive); with LOX IMVI it was 1.26 µM (inactive); in the assay with MDA-N, 2.05 µM (inactive). For the same compound, the GI50 with KM12 was 0.586 µM (active).
In the case of `COc1cc(C(O)c2ccc3c(c2)OCO3)cc(OC)c1OC` (stereo not drawn), the GI50 in the assay with OVCAR-4, in the assay with NCI-H226, in the assay on SR, in the assay with CAKI-1, in the assay on SK-MEL-28 and in the assay on HL-60 was > 100 µM (inactive) each time. Besides, the GI50 in the assay with DU-145, with MOLT-4, with SN12C, with NCI/ADR-RES, with OVCAR-5 and with OVCAR-8 was > 100 µM (inactive) in each case. The GI50 with RPMI-8226, with HOP-62, with SK-MEL-2, in the assay with EKVX, in the assay on LOX IMVI and with MDA-N was > 100 µM (inactive) throughout. Moreover, the GI50 with KM12 was > 100 µM (inactive).
For the compound `CC(C)/C(Cl)=N/OC(NC(=O)Nc1ccc(Cl)c(Cl)c1)(C(F)(F)F)C(F)(F)F`, the GI50 in the assay on OVCAR-4 was 13 µM (inactive); in the assay with NCI-H226, 19.9 µM (inactive); in the assay on SR it was 3.56 µM (inactive); with CAKI-1, 2.16 µM (inactive); in the assay with SK-MEL-28, 19.2 µM (inactive); in the assay with HL-60 it was 2.54 µM (inactive). Besides, the GI50 was 16.7 µM (inactive) with DU-145; 3.2 µM (inactive) in the assay on MOLT-4; 11 µM (inactive) with SN12C; 14.6 µM (inactive) with NCI/ADR-RES; 19.7 µM (inactive) in the assay on OVCAR-5; 3.42 µM (inactive) in the assay on RXF 393. Also, the GI50 in the assay with OVCAR-8 was 17.7 µM (inactive); in the assay on RPMI-8226, 1.72 µM (inactive); with HOP-62 it was 21.6 µM (inactive); with EKVX, 19.4 µM (inactive); in the assay on LOX IMVI it was 4.51 µM (inactive); in the assay with MDA-N it was 16.4 µM (inactive). Moreover, the GI50 in the assay with KM12 is 18.2 µM (inactive).
As for `CSCCCNC(=O)c1csc(-c2csc(C(CNC(=O)OC(C)(C)C)CNC(=O)OC(C)(C)C)n2)n1`, the GI50 with OVCAR-4 was 26.9 µM (inactive); in the assay with NCI-H226, 42.5 µM (inactive); in the assay on SR, 24.4 µM (inactive); with CAKI-1 it was 59.6 µM (inactive); with DU-145, 76.2 µM (inactive); in the assay with MOLT-4 it was 16.8 µM (inactive). In addition, the GI50 was 61.8 µM (inactive) in the assay with SN12C; 24.8 µM (inactive) with NCI/ADR-RES; 67 µM (inactive) with OVCAR-5; 68.5 µM (inactive) with RXF 393; 33.9 µM (inactive) with OVCAR-8; 14.3 µM (inactive) in the assay on RPMI-8226. The GI50 in the assay with HOP-62 is 33.7 µM (inactive); with SK-MEL-2 it was 27.7 µM (inactive); in the assay with EKVX, 58.3 µM (inactive); in the assay on LOX IMVI, 39.8 µM (inactive); in the assay with MDA-N, 51.4 µM (inactive); with KM12, 31 µM (inactive).
Consider `O=C1Nc2ccccc2/C1=N/Nc1nc(-c2cccc([N+](=O)[O-])c2)cs1`, for which the GI50 in the assay with OVCAR-4 is 21 µM (inactive); with NCI-H226 it was 19.2 µM (inactive); in the assay on SR, 53 µM (inactive); in the assay on CAKI-1 it was 19.2 µM (inactive); in the assay with SK-MEL-28, 19.5 µM (inactive); in the assay with HL-60 it was 25.1 µM (inactive). Moreover, the GI50 in the assay on DU-145 is 25.6 µM (inactive); in the assay on MOLT-4, 31.5 µM (inactive); in the assay on SN12C, 20.8 µM (inactive); with NCI/ADR-RES it was 15.3 µM (inactive); in the assay on OVCAR-5, > 100 µM (inactive); in the assay on RXF 393, 29.5 µM (inactive). Moreover, the GI50 in the assay with OVCAR-8 was 15.9 µM (inactive); in the assay on HOP-62 it was 24.1 µM (inactive); in the assay with SK-MEL-2 it was 31.5 µM (inactive); in the assay on EKVX, 22.5 µM (inactive); with LOX IMVI, 20.7 µM (inactive); in the assay on MDA-N, 31.1 µM (inactive). Besides, the GI50 with KM12 was 26.3 µM (inactive).
As for `Oc1ccc(O)c(Cc2ccccc2)c1`, the GI50 with OVCAR-4 is 14.2 µM (inactive); in the assay with NCI-H226 it was 19.6 µM (inactive); in the assay on SR it was 2.32 µM (inactive); in the assay on SK-MEL-28 it was 33.7 µM (inactive); in the assay on HL-60, 1.52 µM (inactive); with DU-145, 6.27 µM (inactive). Further, the GI50 with MOLT-4 was 6.7 µM (inactive); with SN12C, 18.4 µM (inactive); with NCI/ADR-RES, 16.4 µM (inactive); in the assay with OVCAR-5 it was 57.5 µM (inactive); with OVCAR-8, 15.4 µM (inactive); in the assay with RPMI-8226, 3.61 µM (inactive). Further, the GI50 is 27.9 µM (inactive) in the assay on HOP-62; 18.7 µM (inactive) with SK-MEL-2; 38.5 µM (inactive) in the assay with EKVX; 18.6 µM (inactive) in the assay on LOX IMVI; 18 µM (inactive) with MDA-N; 19.1 µM (inactive) with KM12.
As for `COc1ccc(-c2cc(=O)c3c(O)cc(O)cc3o2)cc1OC`, the GI50 in the assay with OVCAR-4 is > 100 µM (inactive); with NCI-H226, > 100 µM (inactive); in the assay on SR, 9.2 µM (inactive); in the assay on SK-MEL-28 it was > 100 µM (inactive); in the assay on HL-60 it was 39.9 µM (inactive); in the assay on DU-145, 57 µM (inactive). For the same compound, the GI50 with MOLT-4 is 44 µM (inactive); in the assay on SN12C, 59.6 µM (inactive); in the assay on NCI/ADR-RES, 56.8 µM (inactive); in the assay with OVCAR-5 it was > 100 µM (inactive); in the assay on RXF 393 it was 46.3 µM (inactive); with RPMI-8226, 64.9 µM (inactive). Moreover, the GI50 with HOP-62 was 24 µM (inactive); in the assay on SK-MEL-2 it was > 100 µM (inactive); with EKVX, 83.8 µM (inactive); in the assay with LOX IMVI, 61.8 µM (inactive); in the assay with MDA-N it was > 100 µM (inactive); in the assay on KM12 it was 33 µM (inactive).

These data come from ChEMBL document CHEMBL1201862, “PubChem BioAssay data set” (2004).
